Results reported in patent US20240109918A1, “HETEROCYCLIC COMPOUNDS AND USES THEREOF” (Kumquat Biosciences Inc., priority 2022, published 2024).

Tests used:
KRASwt = molecular target: T1, KRASwt (Homo sapiens, UniProt P01116); assay: Bio-Biochem-PPI-HTRF Ras-SOS1 interaction assay (KRAS wt); type: biochemical; settings: 5 nM
T1 construct: made in house; host or cells: E. coli BL21 (DE3)
Method in brief: (§1)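 Compounds tested in duplicate (10 μM to 0.01 μM) for disruption of His-hSOS1 binding to GST-tagged wild-type or G12D K-Ras in HEPES pH 7.4 buffer. TR-FRET read (Eu donor, XL665 acceptor) after about 10 min or longer; IC50 derived from the 665/620 nm emission ratio.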

KRASG12D = molecular target: T2, KRASG12D (Homo sapiens, UniProt P01116, G12D); assay: Bio-Biochem-PPI-HTRF Ras-SOS1 interaction assay (KRAS G12D); type: biochemical; settings: 5 nM
T2 construct: made in house; host or cells: E. coli BL21 (DE3)
T2 sequence (P01116 1-188 isoform P01116-2 G12D): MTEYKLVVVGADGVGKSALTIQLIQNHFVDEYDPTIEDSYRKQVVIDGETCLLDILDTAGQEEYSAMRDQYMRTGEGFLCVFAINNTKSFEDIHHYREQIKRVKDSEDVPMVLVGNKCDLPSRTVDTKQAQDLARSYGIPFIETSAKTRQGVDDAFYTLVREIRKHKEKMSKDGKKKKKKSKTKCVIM
Method in brief: as §1

T1 sequence (P01116 1-188 isoform P01116-2): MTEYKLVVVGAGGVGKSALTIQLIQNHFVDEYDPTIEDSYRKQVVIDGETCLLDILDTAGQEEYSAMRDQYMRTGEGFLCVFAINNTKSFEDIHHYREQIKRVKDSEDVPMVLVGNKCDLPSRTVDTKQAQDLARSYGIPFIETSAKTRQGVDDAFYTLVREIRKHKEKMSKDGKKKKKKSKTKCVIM

Row | SMILES | IC50 (KRASwt) [µM] | IC50 (KRASG12D) [µM]
1 | N#Cc1c(N)sc2c(F)ccc(-c3c(Cl)cc4c(N5CCCCC6(CN(C(=O)CN7CCOCC7=O)C6)C5)nc(OC[C@@]56CCCN5C[C@H](F)C6)nc4c3F)c12 [compound 326, 2-amino-4-(6-chloro-8-fluoro-2-(((2R,7aS)-2-fluorotetrahydro-1H-pyrrolizin-7a(5H)-yl)methoxy)-4-(2-(2-(3-oxomorpholino)acetyl)-2,6-diazaspiro[3.6]decan-6-yl)quinazolin-7-yl)-7-fluorobenzo[b]thiophene-3-carbonitrile] | < 5 | < 5
2 | C[C@H](Oc1nc(N2CCCC3(CN(C(=O)C(F)(F)F)C3)C2)c2cc(Cl)c(-c3ccc(F)c4sc(N)c(C#N)c34)c(F)c2n1)[C@@H]1CCCN1C [compound 123, 2-amino-4-(6-chloro-8-fluoro-2-((S)-1-((S)-1-methylpyrrolidin-2-yl)ethoxy)-4-(2-(2,2,2-trifluoroacetyl)-2,6-diazaspiro[3.5]nonan-6-yl)quinazolin-7-yl)-7-fluorobenzo[b]thiophene-3-carbonitrile] | < 5 | < 5
3 | N#Cc1c(N)sc2c(F)ccc(-c3c(Cl)cc4c(N5CCCCC6(CN(CC7CC7(F)F)C6)C5)nc(OC[C@@]56CCCN5C[C@H](F)C6)nc4c3F)c12 (stereo partly drawn) [compound 255, 2-amino-4-(6-chloro-4-(2-((2,2-difluorocyclopropyl)methyl)-2,6-diazaspiro[3.6]decan-6-yl)-8-fluoro-2-(((2R,7aS)-2-fluorotetrahydro-1H-pyrrolizin-7a(5H)-yl)methoxy)quinazolin-7-yl)-7-fluorobenzo[b]thiophene-3-carbonitrile] | < 5 | < 5
4 | N#Cc1c(N)sc2c(F)ccc(-c3c(Cl)cc4c(N5CCCCC6(CN(C(=O)C7(C(F)F)CC7)C6)C5)nc(OC[C@@]56CCCN5C[C@H](F)C6)nc4c3F)c12 [compound 276, 2-amino-4-(6-chloro-4-(2-(1-(difluoromethyl)cyclopropane-1-carbonyl)-2,6-diazaspiro[3.6]decan-6-yl)-8-fluoro-2-(((2R,7aS)-2-fluorotetrahydro-1H-pyrrolizin-7a(5H)-yl)methoxy)quinazolin-7-yl)-7-fluorobenzo[b]thiophene-3-carbonitrile] | < 5 | < 5
5 | N#Cc1c(N)sc2c(F)ccc(-c3c(Cl)cc4c(N5CCC(F)(F)CC6(CN(C(=O)[C@@H]7C[C@H]7C#N)C6)C5)nc(OC[C@@]56CCCN5C[C@H](F)C6)nc4c3F)c12 [compound 342, 2-amino-4-(6-chloro-4-(2-((1R,2R)-2-cyanocyclopropane-1-carbonyl)-9,9-difluoro-2,6-diazaspiro[3.6]decan-6-yl)-8-fluoro-2-(((2R,7aS)-2-fluorotetrahydro-1H-pyrrolizin-7a(5H)-yl)methoxy)quinazolin-7-yl)-7-fluorobenzo[b]thiophene-3-carbonitrile] | < 5 | < 5
6 | N#Cc1c(N)sc2c(F)ccc(-c3c(Cl)cc4c(N5CCCCC6(CN(C(=O)c7ccnn7C(F)(F)F)C6)C5)nc(OC[C@@]56CCCN5C[C@H](F)C6)nc4c3F)c12 [compound 323, 2-amino-4-(6-chloro-8-fluoro-2-(((2R,7aS)-2-fluorotetrahydro-1H-pyrrolizin-7a(5H)-yl)methoxy)-4-(2-(1-(trifluoromethyl)-1H-pyrazole-5-carbonyl)-2,6-diazaspiro[3.6]decan-6-yl)quinazolin-7-yl)-7-fluorobenzo[b]thiophene-3-carbonitrile] | < 5 | < 5
7 | N#Cc1c(N)sc2c(F)ccc(-c3c(Cl)cc4c(N5CCCCC6(CN(C(=O)N7CC(C(F)F)C7)C6)C5)nc(OC[C@@]56CCCN5C[C@H](F)C6)nc4c3F)c12 [compound 196, 2-amino-4-(6-chloro-4-(2-(3-(difluoromethyl)azetidine-1-carbonyl)-2,6-diazaspiro[3.6]decan-6-yl)-8-fluoro-2-(((2R,7aS)-2-fluorotetrahydro-1H-pyrrolizin-7a(5H)-yl)methoxy)quinazolin-7-yl)-7-fluorobenzo[b]thiophene-3-carbonitrile] | < 5 | < 5
8 | N#Cc1c(N)sc2c(F)ccc(-c3c(Cl)cc4c(N5CCCCC6(CN(C(=O)NC7(C(F)(F)F)CC7)C6)C5)nc(OC[C@@]56CCCN5C[C@H](F)C6)nc4c3F)c12 [compound 289, 6-(7-(2-amino-3-cyano-7-fluorobenzo[b]thiophen-4-yl)-6-chloro-8-fluoro-2-(((2R,7aS)-2-fluorotetrahydro-1H-pyrrolizin-7a(5H)-yl)methoxy)quinazolin-4-yl)-N-(1-(trifluoromethyl)cyclopropyl)-2,6-diazaspiro[3.6]decane-2-carboxamide] | < 5 | < 5
9 | CC(C)[C@H](N)C(=O)N1CC2(CCCCN(c3nc(OC[C@@]45CCCN4C[C@H](F)C5)nc4c(F)c(-c5ccc(F)c6sc(N)c(C#N)c56)c(Cl)cc34)C2)C1 [compound 221, 4-(4-(2-(L-valyl)-2,6-diazaspiro[3.6]decan-6-yl)-6-chloro-8-fluoro-2-(((2R,7aS)-2-fluorotetrahydro-1H-pyrrolizin-7a(5H)-yl)methoxy)quinazolin-7-yl)-2-amino-7-fluorobenzo[b]thiophene-3-carbonitrile] | < 5 | < 5
10 | N#Cc1c(N)sc2c(F)ccc(-c3c(Cl)cc4c(N5CCCCC6(CN(C(=O)C[C@@H]7CCOC7)C6)C5)nc(OC[C@@]56CCCN5C[C@H](F)C6)nc4c3F)c12 [compound 259, 2-amino-4-(6-chloro-8-fluoro-2-(((2R,7aS)-2-fluorotetrahydro-1H-pyrrolizin-7a(5H)-yl)methoxy)-4-(2-(2-((S)-tetrahydrofuran-3-yl)acetyl)-2,6-diazaspiro[3.6]decan-6-yl)quinazolin-7-yl)-7-fluorobenzo[b]thiophene-3-carbonitrile] | < 5 | < 5
11 | N#Cc1c(N)sc2c(F)ccc(-c3c(F)c4nc(OC[C@@]56CCCN5C[C@H](F)C6)nc(N5CCCCC6(CN(C(=O)C(F)F)C6)C5)c4c(=O)n3C3CC3)c12 [compound 233, 2-amino-4-(6-cyclopropyl-4-(2-(2,2-difluoroacetyl)-2,6-diazaspiro [3.6]decan-6-yl)-8-fluoro-2-(((2R,7aS)-2-fluorotetrahydro-1H-pyrrolizin-7a(5H)-yl)methoxy)-5-oxo-5,6-dihydropyrido[4,3-d]pyrimidin-7-yl)-7-fluorobenzo[b]thiophene-3-carbonitrile] | < 5 | < 5
12 | CC(=O)N1CC2(CCCN(c3nc(OC[C@@]45CCCN4C[C@H](F)C5)nc4c(F)c(-c5ccc(F)c6sc(N)c(C#N)c56)c(Cl)cc34)C2)C1 [compound 169, 4-(4-(2-acetyl-2,6-diazaspiro[3.5]nonan-6-yl)-6-chloro-8-fluoro-2-(((2R,7aS)-2-fluorotetrahydro-1H-pyrrolizin-7a(5H)-yl)methoxy)quinazolin-7-yl)-2-amino-7-fluorobenzo[b]thiophene-3-carbonitrile] | < 5 | < 5
13 | C#CN1CCC2(CCN(c3nc(OC[C@@]45CCCN4C[C@H](F)C5)nc4c(F)c(-c5ccc(F)c6sc(N)c(C#N)c56)c(Cl)cc34)C2)C1=O (stereo partly drawn) [compound 225, 2-amino-4-(6-chloro-4-(7-ethynyl-6-oxo-2,7-diazaspiro[4.4]nonan-2-yl)-8-fluoro-2-(((2R,7aS)-2-fluorotetrahydro-1H-pyrrolizin-7a(5H)-yl)methoxy)quinazolin-7-yl)-7-fluorobenzo[b]thiophene-3-carbonitrile] | < 5 | < 5
14 | N#Cc1c(N)sc2c(F)ccc(-c3c(Cl)cc4c(N5CCOCC6(CN(C(=O)C(F)Cl)C6)C5)nc(OC[C@@]56CCCN5C[C@H](F)C6)nc4c3F)c12 (stereo partly drawn) [compound 283, 2-amino-4-(6-chloro-4-(2-(2-chloro-2-fluoroacetyl)-6-oxa-2,9-diazaspiro[3.6]decan-9-yl)-8-fluoro-2-(((2R,7aS)-2-fluorotetrahydro-1H-pyrrolizin-7a(5H)-yl)methoxy)quinazolin-7-yl)-7-fluorobenzo[b]thiophene-3-carbonitrile] | < 5 | < 5
15 | C#Cc1c(F)ccc2cc(O)cc(-c3ncc4c(N5CCCC6(CN(C(=O)[C@@H]7C[C@H]7C#N)C6)C5)nc(O[C@@H](C)[C@@H]5CCCN5C)nc4c3F)c12 [compound 113, (1R,2R)-2-(6-(7-(8-ethynyl-7-fluoro-3-hydroxynaphthalen-1-yl)-8-fluoro-2-((S)-1-((S)-1-methylpyrrolidin-2-yl)ethoxy)pyrido[4,3-d]pyrimidin-4-yl)-2,6-diazaspiro[3.5]nonane-2-carbonyl)cyclopropane-1-carbonitrile] | < 5 | < 5
16 | N#Cc1c(N)sc2c(F)ccc(-c3c(Cl)cc4c(N5CCCCC6(CN(C(=O)C78CC(C(F)(F)F)(C7)C8)C6)C5)nc(OC[C@@]56CCCN5C[C@H](F)C6)nc4c3F)c12 [compound 237, 2-amino-4-(6-chloro-8-fluoro-2-(((2R,7aS)-2-fluorotetrahydro-1H-pyrrolizin-7a(5H)-yl)methoxy)-4-(2-(3-(trifluoromethyl)bicyclo[1.1.1]pentane-1-carbonyl)-2,6-diazaspiro[3.6]decan-6-yl)quinazolin-7-yl)-7-fluorobenzo[b]thiophene-3-carbonitrile] | < 5 | < 5
17 | N#Cc1c(N)sc2c(F)ccc(-c3c(Cl)cc4c(N5CCCCC6(CN(C(=O)N7CC(F)C7)C6)C5)nc(OC[C@@]56CCCN5C[C@H](F)C6)nc4c3F)c12 [compound 250, 2-amino-4-(6-chloro-8-fluoro-4-(2-(3-fluoroazetidine-1-carbonyl)-2,6-diazaspiro[3.6]decan-6-yl)-2-(((2R,7aS)-2-fluorotetrahydro-1H-pyrrolizin-7a(5H)-yl)methoxy)quinazolin-7-yl)-7-fluorobenzo[b]thiophene-3-carbonitrile] | < 5 | < 5
